# Measured values from patent US6630508B1, “Substituted benzopyrans as selective estrogen receptor β agonists” (Eli Lilly and Company, priority 2002, dated 2003).
# Target: T1, ER beta receptor (Homo sapiens, UniProt Q92731)
# T1 construct: purchased PanVera
# Assay: Competition ER binding assay (3H-Estradiol displacement)
# Settings: for Ratio of Ki(nM)ER alpha/Ki(nM) ER beta: selectivity ratio Ki ER alpha / Ki ER beta, Ki from IC50 by Cheng-Prusoff, 3H-Estradiol, ERAlpha or ERbeta Receptor (PanVera)
# Experimental: The competition ER binding assay was run in a buffer containing 50 mM N-[2-hydroxyethyl]piperazine-N′-[2-ethanesulfonic acid (Hepes) pH 7.5, 1.5 mM EDTA, 150 mM NaCl, 10% glycerol, 1 mg/mL ovalbumin, 5 mM DTT, 0.025 μCi per well of ^3H-Estradiol(NEN #NET517 at 118 Ci/mmol, 1 mCi/mL), and 10 ng/well ERAlpha or ERbeta Receptor (PanVera). Competing compounds were added at 10 different concentrations. Non-specific binding was determined in the presence of 1 μM of E2 (17-β Estradiol, Sigma, St. Louis, Mo.). The binding reaction (140 μL) was incubated for 4 hours at room temperature, then 70 μL of cold dextran coated charcoal (DCC) buffer was added to each reaction (DCC buffer was prepared by adding 0.75 g of charcoal[Sigma] and 0.25 g of dextran [Pharmacia] per 50 mL of assay buffer). The incubation plates were mixed for 8 minutes on an orbital shaker at 4° C. and then centrifuged at 3,000 rpm for 10 minutes at 4° C. An aliquot of 120 μl of the mix was transferred to another 96-well, white flat bottom plate (Costar) and 175 μl of Wallac Optiphase Hisafe 3 scintillation fluid was added to each well. The plates were sealed and then shaken vigorously on an orbital shaker. After an incubation of 2.5 hrs, the radioactivity was counted in a Wallac Microbeta counter. […] The Kd for ^3H-Estradiol was determined by saturation binding to ERα and ERβ receptors. The IC50 values for compounds were converted to Ki values using the Cheng-Prusoff equation and the Kd values were determined by saturation binding assay.
# T1 sequence (Q92731 whole entry): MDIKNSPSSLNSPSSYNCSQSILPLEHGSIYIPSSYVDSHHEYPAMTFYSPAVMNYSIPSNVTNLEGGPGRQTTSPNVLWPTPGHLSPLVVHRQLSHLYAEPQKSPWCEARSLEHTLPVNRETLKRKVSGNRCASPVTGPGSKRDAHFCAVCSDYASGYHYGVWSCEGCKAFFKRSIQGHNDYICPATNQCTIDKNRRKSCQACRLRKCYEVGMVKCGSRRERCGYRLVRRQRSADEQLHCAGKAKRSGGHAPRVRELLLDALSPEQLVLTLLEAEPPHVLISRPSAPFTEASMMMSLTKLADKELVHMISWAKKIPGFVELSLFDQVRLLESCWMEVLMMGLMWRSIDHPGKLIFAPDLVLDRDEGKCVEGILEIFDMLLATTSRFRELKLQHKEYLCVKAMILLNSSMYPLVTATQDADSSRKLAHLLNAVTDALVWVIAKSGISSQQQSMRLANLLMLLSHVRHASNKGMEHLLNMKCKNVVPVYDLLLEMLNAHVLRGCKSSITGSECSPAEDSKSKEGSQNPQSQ
Compound,activity in the ER binding assay,Ratio of Ki(nM)ER alpha/Ki(nM) ER beta
"Cc1ccc([C@H]2Oc3ccc(O)cc3[C@H]3CCC[C@H]32)cc1 (racemic) [Example 6, (±)-2-(4-Methylphenyl)-6-hydroxy-cyclopentyl[c]3,4-dihydro-2H-1-benzopyran]",active,12.6
"Oc1ccc2c(c1)[C@H]1CCC[C@H]1[C@@H](c1ccc(C(F)(F)F)cc1)O2 (racemic) [Example 4, (±)-2-(4-Trifluoromethylphenyl)-6-hydroxy-cyclopentyl[c]3,4-dihydro-2H-1-benzopyran]",active,6.9
"CCc1ccc([C@H]2Oc3ccc(O)cc3[C@H]3CCC[C@H]32)cc1 (racemic) [Example 3, (±)-2-(4-ethylphenyl)-6-hydroxy-cyclopentyl[c]3,4-dihydro-2H-1-benzopyran]",active,2.6
"Oc1ccc2c(c1)[C@H]1CCC[C@H]1[C@@H](c1ccc(F)cc1)O2 (racemic) [Example 2, (±)-2-(4-Fluorophenyl)-6-hydroxy-cyclopentyl[c]3,4-dihydro-2H-1-benzopyran]",active,5.0
